Laboratory results as given in the NIST ThermoML archive (doi:10.1016/j.jct.2015.08.031).
Numbers after ± are expanded uncertainties.

Details: 101.33 kPa, Crystal, relaxation calorimeter

O[C@H]1[C@H](O)[C@H](O)OC[C@H]1O [β-D-arabinopyranose]
Details | molar entropy [J/K/mol]
0.5 K | 0.0007089 ± 8.4e-05
1 K | 0.001551 ± 0.00017
1.5 K | 0.002666 ± 0.00028
2 K | 0.004203 ± 0.00045
2.5 K | 0.006327 ± 0.00067
3 K | 0.009226 ± 0.00097
3.5 K | 0.01311 ± 0.0014
4 K | 0.01824 ± 0.0019
4.5 K | 0.02488 ± 0.0026
5 K | 0.03336 ± 0.0035
5.5 K | 0.04406 ± 0.0046
6 K | 0.0574 ± 0.006
6.5 K | 0.07383 ± 0.0077
7 K | 0.09385 ± 0.0098
7.5 K | 0.118 ± 0.012
8 K | 0.1468 ± 0.015
8.5 K | 0.1809 ± 0.019
9 K | 0.2206 ± 0.023
9.5 K | 0.2662 ± 0.028
10 K | 0.3182 ± 0.033
11 K | 0.4423 ± 0.046
12 K | 0.5944 ± 0.062
13 K | 0.7758 ± 0.081
14 K | 0.9866 ± 0.1
15 K | 1.227 ± 0.13
16 K | 1.496 ± 0.16
17 K | 1.793 ± 0.19
18 K | 2.116 ± 0.22
19 K | 2.466 ± 0.26
20 K | 2.839 ± 0.3
25 K | 5.013 ± 0.31
30 K | 7.582 ± 0.46
35 K | 10.43 ± 0.64
40 K | 13.47 ± 0.82
45 K | 16.66 ± 1
50 K | 19.95 ± 1.2
55 K | 23.28 ± 1.4
60 K | 26.64 ± 1.6
65 K | 30 ± 1.8
70 K | 33.38 ± 2
75 K | 36.77 ± 2.2
80 K | 40.16 ± 2.4
85 K | 43.54 ± 2.7
90 K | 46.93 ± 2.9
95 K | 50.31 ± 3.1
100 K | 53.68 ± 3.3
110 K | 60.41 ± 3.7
120 K | 67.11 ± 4.1
130 K | 73.78 ± 4.5
140 K | 80.41 ± 4.9
150 K | 87.01 ± 5.3
160 K | 93.58 ± 5.7
170 K | 100.12 ± 6.1
180 K | 106.62 ± 6.5
190 K | 113.1 ± 6.9
200 K | 119.55 ± 7.3
210 K | 125.98 ± 7.7
220 K | 132.38 ± 8.1
230 K | 138.76 ± 8.4
240 K | 145.12 ± 8.8
250 K | 151.45 ± 9.2
260 K | 157.77 ± 9.6
270 K | 164.07 ± 10
273.15 K | 166.06 ± 10
280 K | 170.36 ± 10
290 K | 176.63 ± 11
298.15 K | 181.72 ± 11
300 K | 182.88 ± 11
